Laboratory results reported in patent US20250161329A1, “USE OF UV FILTERS FOR THE TREATMENT OF ACNE” (DSM IP ASSETS B.V., priority 2022, published 2025).

Legend:
[1] = tested on: Cutibacterium acnes ATCC 11827; experiment: In vitro UV model, survival of C. acnes after UV irradiation (96-well liquid model, plate counting); type: cell-based; conditions: for C. acnes relative protection by the UV filter(s) vs. vehicle control / C. acnes survival: UV 3 SED (UVA+UVB 30 mJ/cm^2), after 4 h, sample at 20% v/v; for C. acnes relative protection by the UV filter(s) vs. vehicle control: (sample survival - vehicle survival)/vehicle survival; for C. acnes survival: compared to untreated and non-irradiated control
Experimental: Accordingly, the inventors developed a targeted in vitro liquid model in 96-well microplate format to screen for UV protective actives (“UV filters”) on bacterial survival. The effects of selected UV irradiation conditions tested on microbial population of C. acnes and the commensal reference strain of Staphylococcus epidermidis in the presence of various UV filters and combinations thereof were evaluated with the evolution of the residual microbial population after 4 h. The inhibition of bacterial growth, as consequence of UV irradiation, was compared to that of the same strain without UV irradiation and was expressed in percentage of survival (%). The microbial strains used in this study are listed below and their cultures are reconstituted according to the direction of the supplier collection center of the reference strain, (ATCC American Type Culture Collection, USA): • Cutibacterium acnes ATCC 11827 • Staphylococcus epidermidis ATCC 12228 The 96-well plate was filled with the recommended culture media (140 μL) and a calibrated inoculum (20 μL) of each bacterial strain was added to reach […] colony forming units per milliliter (cfu/mL) final concentration. After contamination, the sample was added (40 μL; 20% v/v) in triplicate and was thoroughly mixed to ensure a homogeneous distribution. Then, the plate was submitted to UV stress through an UV irradiator system (BioSun, Vilber Lourmat, France) according to the UV doses presented Table 1 below. The specific UV dose selected was between 10 and 49% survival of the microbial population. The counting of C. acnes microbial population was performed by plating aliquots on the agar plates and was done in triplicate. The enumeration of grown C. acnes colonies was used to determine the decrease rate of microbial population. Controls performed during this experiment were the culture medium with bacteria incubated without UV stress. The microbial population counts were expressed in cfu/mL and were the average of experiment done in triplicate. The use level of the single UV filter and combinations in the test formulations was calculated to obtain a predicted in vitro SPF value of 5.75+/−0.15 and 23.45+/−0.65, respectively (Table 2). The UV filters were mixed in the two oils, Tegosoft XC (55%) and Miglyol 829 Eco (ad100%) and the emulsifier Tween 80 (5%). The effect of selected UV irradiation conditions on the survival of microbial population of C. acnes and S. epidermidis in the presence of the tested samples 1-10 at 20% v/v, was compared with the corresponding strain in the absence of samples 1-10 and without exposure to UV irradiation (control). The results after the 4-hour incubation were compared to the population of bacteria incubated without UV stress (determination of bacterial population survival) and were expressed in percentage of survival (%). The relative percentage of protection (%) was calculated from the difference between the survival percentages of samples and vehicle control (with UV irradiation) and divided to the survival percentage of the vehicle control. Consequently, the survival of each microbial population and the relative protection by the UV filter(s) were calculated and are summarized in the Table 2.

[2] = tested on: Staphylococcus epidermidis ATCC 12228; experiment: In vitro UV model, survival of S. epidermidis after UV irradiation (96-well liquid model, MPN method); type: cell-based
Experimental: Accordingly, the inventors developed a targeted in vitro liquid model in 96-well microplate format to screen for UV protective actives (“UV filters”) on bacterial survival. The effects of selected UV irradiation conditions tested on microbial population of C. acnes and the commensal reference strain of Staphylococcus epidermidis in the presence of various UV filters and combinations thereof were evaluated with the evolution of the residual microbial population after 4 h. The inhibition of bacterial growth, as consequence of UV irradiation, was compared to that of the same strain without UV irradiation and was expressed in percentage of survival (%). […] The use level of the single UV filter and combinations in the test formulations was calculated to obtain a predicted in vitro SPF value of 5.75+/−0.15 and 23.45+/−0.65, respectively (Table 2). […] The relative percentage of protection (%) was calculated from the difference between the survival percentages of samples and vehicle control (with UV irradiation) and divided to the survival percentage of the vehicle control. Consequently, the survival of each microbial population and the relative protection by the UV filter(s) were calculated and are summarized in the Table 2.

| SMILES | C. acnes relative protection by the UV filter(s) vs. vehicle control [1] | C. acnes survival [1] [%] | effect on the population of C. acnes upon UV irradiation (in words) ([1]; C. acnes ATCC 11827, phylotype IA, upon UV irradiation) | effect on the commensal bacterium S. epidermidis upon UV irradiation (in words) [2] |
| --- | --- | --- | --- | --- |
| CCCCC(CC)COC(=O)c1ccccc1O (stereo not shown) [Inv. 2, Ethylhexyl Salicylate] | (−30) % | 46 |  |  |
| CCCCC(CC)COC(=O)C(C#N)=C(c1ccccc1)c1ccccc1 (stereo not shown) [Inv. 1, Octocrylene] | (−15) % | 56 | reduced the population of C. acnes | maintain or even propagating the commensal bacterium S. epidermidis |
| CCCCC(CC)COc1ccc(-c2nc(-c3ccc(OC)cc3)nc(-c3ccc(OCC(CC)CCCC)cc3O)n2)c(O)c1 (stereo not shown) [Ref. 2, Bis-Ethylhexyloxyphenol Methoxyphenyl Triazine, reference compound] | (+13) % | 74 |  |  |
| CCCCC(CC)COC(=O)c1ccc(Nc2nc(Nc3ccc(C(=O)OCC(CC)CCCC)cc3)nc(Nc3ccc(C(=O)OCC(CC)CCCC)cc3)n2)cc1 (stereo not shown) [Ref. 1, Ethylhexyl Triazone, reference compound] | (+40) % | 92 |  |  |
